Key:
rat islets = assay: Live/dead islet staining of islets co-encapsulated with drug; format: cell-based; conditions: amorphous and crystalline forms
Description: Male Sprague-Dawley rats from Jackson Laboratories (Bar Harbor, Me.) weighing approximately 300 grams were used for harvesting islets. All rats were anesthetized by a 1:20 xylazine (10 mg/kg) to ketamine (150 mg/kg) injection given intraperitoneally, and the total volume of each injection was 0.4 ml-0.5 ml depending on the weight of rat. Isolation surgeries were performed as described by Lacy and Kostianovsky^2. Briefly, the bile duct was cannulated and the pancreas was distended by an in vivo injection of 0.15% Liberase (Research Grade, Roche) in RPMI 1640 media solution. Rats were sacrificed by cutting the descending aorta and the distended pancreatic organs were removed and held in 50 ml conical tubes on ice until the completion of all surgeries. All tubes were placed in a 37° C. water bath for a 30 min digestion, which was stopped by adding 10-15 ml of cold M199 media with 10% heat-inactivated fetal bovine serum (HIFBS) and lightly shaking. Digested pancreases were washed twice in the same aforementioned M199 media, filtered through a 450 μm sieve, and then suspended in a Histopaque 1077 (Sigma)/M199 media gradient and centrifuged at 1,700 RCF at 4° C. […] Purified islets were hand-counted by aliquot under a light microscope and then washed three times in sterile ix phosphate-buffered saline. […]

C57BL/6 mice = assay: Crystalline drug-loaded alginate capsules, long-term IP/SC implantation, prevention of fibrosis; format: in vivo; conditions: crystalline form in alginate capsules, retrieved after 1, 3 and 6 months from IP space
Excerpt: Lead compounds identified by screening the amorphous formulations (e.g., compounds of Formulae I-X, particularly LY215799, Dx, Curcumin, GW2580, QNZ and Ki20227) were studied for long-term release and prevention of fibrosis following encapsulation in crystalline form and implantation into the intraperitoneal (IP) space of C57BL/6 mice for long term testing. […] Drug extraction analysis by HPLC also determined that notable percentages (e.g., more than 50%) of the loaded drug remained within the retrieved capsules (FIG. 22D), particularly in the subcutaneous implanted samples. […] In contrast, capsules retrieved from the IP space 6 months post-implantation were identified with only 2-40% of the loaded drug remaining within the retrieved capsules.
All animal protocols were approved by the MIT Committee on Animal Care, and all surgical procedures and post-operative care was supervised by MIT Division of Comparative Medicine veterinary staff. Immune-competent male non-diabetic or STZ-induced diabetic C57BL/6 mice (Jackson Laboratory, Bar Harbor, Me.) were anesthetized with 3% isoflurane in oxygen and had their abdomens shaved and sterilized using betadine and isopropanol. Preoperatively, all mice also received a 0.05 mg/kg dose of buprenorphine subcutaneously as a pre-surgical analgesic, along with 0.3 mL of 0.9% saline subcutaneously to prevent dehydration. A […] incision was made along the midline of the abdomen and the peritoneal lining was exposed using blunt dissection. The peritoneal wall was then grasped with forceps and a 0.5-1 mm incision was made along the linea alba. A desired volume of spheres (all materials without islets, as well as SLG20 spheres encapsulating rat islets) were then loaded into a sterile pipette and implanted into the peritoneal cavity through the incision. The incision was then closed using 5-0 taper-tipped polydioxanone (PDS II) absorbable sutures. The skin was then closed over the incision using a wound clip and tissue glue.
At desired time points post-implantation or transplantation (with encapsulated islets), as specified in figures, mice were euthanized by CO2 administration, followed by cervical dislocation. In certain instances, 5 ml of ice cold PBS was first injected in order perform an intraperitoneal lavage to rinse out and collect free-floating intraperitoneal immune cells. An incision was then made using the forceps and scissors along the abdomen skin and peritoneal wall, and intraperitoneal lavage volumes were pipetted out into fresh 15 ml falcon tubes (each prepared with 5 ml of RPMI cell culture media). Next, a wash bottle tip was inserted into the abdominal cavity. KREBS buffer was then used to wash out all material spheres from the abdomen and into petri dishes for collection. After ensuring all the spheres were washed out or manually retrieved (if fibrosed directly to intraperitoneal tissues), they were transferred into 50 mL conical tubes for downstream processing and imaging. After intraperitoneal lavage and sphere retrieval, remaining fibrosed intraperitoneal tissues were also excised for downstream FACS and expression analyses.
For phase contrast imaging, retrieved materials were gently washed using Krebs buffer and transferred into 35 mm petri dishes for phase contrast microscopy using an Evos X1 microscope (Advanced Microscopy Group).
Immunofluorescence imaging was used to determine immune populations attached to spheres. […]

COc1ccc(COc2ccc(Cc3cnc(N)nc3N)cc2OC)cc1 [GW2580, 5-[[3-Methoxy-4-[(4-methoxyphenyl)methoxy]phenyl]methyl]-2,4-pyrimidinediamine]
toxicity to co-encapsulated islets (dead/live imaging) (rat islets): non-toxic
fibrosis by phase contrast imaging and confocal microscopy (C57BL/6 mice): fibrosis free
